Active and inactive are the calls of the source. Rule as the data show it: actives have a measured IC50 and inactives only a lower limit.
Experiments:
Assay type in all cases: functional
Caspase-3 = target: T1, Caspase-3 (Homo sapiens, UniProt P42574);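 also: Dose-response selectivity test against caspase-3 for candidate inhibitors of sentrin-specific proteases (SENPs)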
T1 sequence (P42574 whole entry): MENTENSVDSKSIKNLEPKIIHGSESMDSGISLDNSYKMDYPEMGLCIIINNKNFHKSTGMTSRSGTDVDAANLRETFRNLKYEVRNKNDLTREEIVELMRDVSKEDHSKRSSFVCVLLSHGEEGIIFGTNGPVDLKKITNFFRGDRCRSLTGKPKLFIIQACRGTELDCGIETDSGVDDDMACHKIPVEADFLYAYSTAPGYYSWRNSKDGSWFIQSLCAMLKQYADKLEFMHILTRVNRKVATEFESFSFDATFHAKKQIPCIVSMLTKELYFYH

[1] = target: T2, Sentrin-specific protease 7 (Homo sapiens, UniProt Q9BQF6);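 also: Luminescence-based dose-response confirmation of ultra-high-throughput screening hits, measuring inhibition of SENP7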
T2 sequence (Q9BQF6 whole entry): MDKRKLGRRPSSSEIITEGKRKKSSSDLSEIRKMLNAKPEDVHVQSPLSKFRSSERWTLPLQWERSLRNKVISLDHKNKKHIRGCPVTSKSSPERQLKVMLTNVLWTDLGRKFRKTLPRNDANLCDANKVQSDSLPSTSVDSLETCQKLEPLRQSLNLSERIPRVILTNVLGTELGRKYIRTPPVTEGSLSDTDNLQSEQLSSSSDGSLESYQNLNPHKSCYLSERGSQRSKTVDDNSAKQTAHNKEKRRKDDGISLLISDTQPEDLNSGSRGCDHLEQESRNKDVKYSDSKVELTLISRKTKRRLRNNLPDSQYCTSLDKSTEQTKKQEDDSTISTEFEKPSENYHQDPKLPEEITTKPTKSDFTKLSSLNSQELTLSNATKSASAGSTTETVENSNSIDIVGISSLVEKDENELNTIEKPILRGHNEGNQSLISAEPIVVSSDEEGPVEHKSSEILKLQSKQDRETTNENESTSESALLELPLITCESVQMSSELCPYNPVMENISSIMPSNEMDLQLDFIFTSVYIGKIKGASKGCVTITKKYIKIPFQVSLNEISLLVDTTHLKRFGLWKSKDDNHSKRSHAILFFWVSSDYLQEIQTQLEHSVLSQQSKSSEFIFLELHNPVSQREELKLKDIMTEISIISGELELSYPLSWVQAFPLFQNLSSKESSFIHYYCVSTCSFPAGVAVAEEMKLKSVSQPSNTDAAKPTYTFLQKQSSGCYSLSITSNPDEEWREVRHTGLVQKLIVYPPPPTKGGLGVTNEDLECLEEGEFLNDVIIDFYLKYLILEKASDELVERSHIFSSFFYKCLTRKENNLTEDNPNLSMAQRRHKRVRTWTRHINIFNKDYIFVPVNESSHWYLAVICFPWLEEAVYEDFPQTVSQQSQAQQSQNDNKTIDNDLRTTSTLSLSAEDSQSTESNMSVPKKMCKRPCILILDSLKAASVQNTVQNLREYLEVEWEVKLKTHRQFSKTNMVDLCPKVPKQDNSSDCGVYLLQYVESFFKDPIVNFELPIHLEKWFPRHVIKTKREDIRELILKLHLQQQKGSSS

[2] = target: T3, Sentrin-specific protease 6 (Homo sapiens, UniProt Q9GZR1);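 also: Luminescence-based dose-response confirmatory assay of SENP6 inhibition, following up an ultra-high-throughput screen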
T3 sequence (Q9GZR1 whole entry): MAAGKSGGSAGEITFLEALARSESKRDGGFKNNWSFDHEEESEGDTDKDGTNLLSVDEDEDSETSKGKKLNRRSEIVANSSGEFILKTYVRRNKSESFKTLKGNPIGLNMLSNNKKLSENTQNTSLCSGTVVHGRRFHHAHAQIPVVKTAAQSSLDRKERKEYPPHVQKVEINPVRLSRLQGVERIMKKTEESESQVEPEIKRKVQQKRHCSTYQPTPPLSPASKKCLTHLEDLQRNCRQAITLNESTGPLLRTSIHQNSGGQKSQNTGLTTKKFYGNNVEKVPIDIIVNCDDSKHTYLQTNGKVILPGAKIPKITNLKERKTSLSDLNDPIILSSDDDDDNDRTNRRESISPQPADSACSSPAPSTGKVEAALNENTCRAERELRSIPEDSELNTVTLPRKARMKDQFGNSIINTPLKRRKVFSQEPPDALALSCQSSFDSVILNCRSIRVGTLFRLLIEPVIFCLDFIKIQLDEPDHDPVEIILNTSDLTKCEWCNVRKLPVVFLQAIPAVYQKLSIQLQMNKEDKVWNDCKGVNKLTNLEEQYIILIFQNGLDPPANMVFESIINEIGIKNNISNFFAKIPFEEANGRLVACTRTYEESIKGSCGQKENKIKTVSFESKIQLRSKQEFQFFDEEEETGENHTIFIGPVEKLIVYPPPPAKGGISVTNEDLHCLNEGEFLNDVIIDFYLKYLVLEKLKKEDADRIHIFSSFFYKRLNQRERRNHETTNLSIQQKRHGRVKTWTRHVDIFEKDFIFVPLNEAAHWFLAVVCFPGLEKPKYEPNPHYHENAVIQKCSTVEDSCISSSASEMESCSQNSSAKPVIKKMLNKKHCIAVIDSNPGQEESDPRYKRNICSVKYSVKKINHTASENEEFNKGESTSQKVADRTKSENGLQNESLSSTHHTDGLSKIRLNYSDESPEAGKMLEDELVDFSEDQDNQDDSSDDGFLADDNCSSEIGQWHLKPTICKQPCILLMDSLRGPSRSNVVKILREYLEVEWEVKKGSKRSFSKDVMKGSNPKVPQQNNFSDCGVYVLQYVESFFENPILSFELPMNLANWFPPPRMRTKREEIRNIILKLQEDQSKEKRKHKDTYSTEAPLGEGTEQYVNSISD

[3] = target: T4, Sentrin-specific protease 8 (Homo sapiens, UniProt Q96LD8);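 also: luminescence read-out of SENP8 inhibition, dose-response confirmation following an ultra-high-throughput screen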
T4 sequence (Q96LD8 whole entry): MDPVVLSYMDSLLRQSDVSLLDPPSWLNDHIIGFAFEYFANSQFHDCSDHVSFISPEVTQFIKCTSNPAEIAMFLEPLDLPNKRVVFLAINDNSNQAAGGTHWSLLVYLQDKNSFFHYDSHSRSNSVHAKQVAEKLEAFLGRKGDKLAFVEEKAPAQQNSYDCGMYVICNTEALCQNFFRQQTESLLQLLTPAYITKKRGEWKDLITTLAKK

Compound	IC50 (Caspase-3)	IC50 [1]	IC50 [2]	IC50 [3]
C/C(=N\c1cccc(C)c1)c1sc2ccccc2c1O	17.4 µM (active)	4.75 µM (active)	12.7 µM (active)	10.7 µM (active)
COc1ccc(/C=N/Nc2cc(N(C)C)nc(N(C)C)n2)cc1	> 100 µM (inactive)	54.5 µM (active)	5.62 µM (active)	5.78 µM (active)

Source: ChEMBL document CHEMBL1201862, “PubChem BioAssay data set” (2004)
